Laboratory results as given in PubChem BioAssay (NCI).
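The compound was tested at five concentrations on cells cultured in 96-well plates, with a 48-hour exposure period. Abbreviation: GI50, concentration required for 50% inhibition of growth. At the TGI there is no net growth.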

What was measured:
Experiment in all cases: NCI anticancer screen, dose series, 48 h
COLO 205 colon = tested on: COLO 205 colon
SK-MEL-28 melanoma = tested on: SK-MEL-28 melanoma
U251 CNS = tested on: U251 CNS
OVCAR-8 ovarian = tested on: OVCAR-8 ovarian
RPMI-8226 leukemia = tested on: RPMI-8226 leukemia
NCI-H23 lung = tested on: NCI-H23 lung
UACC-62 melanoma = tested on: UACC-62 melanoma
NCI-H460 lung = tested on: NCI-H460 lung
NCI/ADR-RES ovarian = tested on: NCI/ADR-RES ovarian
HS 578T breast = tested on: HS 578T breast

O=S1(=O)CS(=O)(=O)OCCCCCO1
TGI (COLO 205 colon): > 100 µM
TGI (SK-MEL-28 melanoma): > 100 µM
TGI (U251 CNS): > 100 µM
TGI (OVCAR-8 ovarian): > 100 µM
TGI (RPMI-8226 leukemia): > 100 µM
TGI (NCI-H23 lung): > 100 µM
TGI (UACC-62 melanoma): > 100 µM
TGI (NCI-H460 lung): > 100 µM

CC1(C)N=C(N)N=C(N)N1c1ccc(CCCCCCc2ccc(S(=O)(=O)F)cc2)cc1
TGI (COLO 205 colon): 12.8 µM
TGI (SK-MEL-28 melanoma): 37.7 µM
TGI (NCI/ADR-RES ovarian): 70.9 µM
TGI (U251 CNS): 16.6 µM
TGI (HS 578T breast): 30.5 µM
TGI (OVCAR-8 ovarian): 7.01 µM
TGI (NCI-H23 lung): 12.6 µM
TGI (UACC-62 melanoma): 0.604 µM
TGI (NCI-H460 lung): > 37.8 µM

CCOC(=O)c1cnc2c(ccc3ncccc32)c1OCC
TGI (COLO 205 colon): > 100 µM
TGI (SK-MEL-28 melanoma): > 100 µM
TGI (U251 CNS): > 100 µM
TGI (OVCAR-8 ovarian): > 100 µM
TGI (NCI-H23 lung): > 100 µM
TGI (UACC-62 melanoma): > 100 µM
TGI (NCI-H460 lung): > 100 µM

O=C(CC/C(CC(=O)c1ccc(Cl)cc1)=N\O)Nc1cccc(Cl)c1
TGI (COLO 205 colon): > 100 µM
TGI (SK-MEL-28 melanoma): > 100 µM
TGI (U251 CNS): > 100 µM
TGI (OVCAR-8 ovarian): > 100 µM
TGI (RPMI-8226 leukemia): > 100 µM
TGI (NCI-H23 lung): > 100 µM
TGI (UACC-62 melanoma): > 100 µM
TGI (NCI-H460 lung): > 100 µM

COc1ccc(/C(C#N)=C2/O/C(=N/N)C(c3ccc(OC)c(OC)c3)C2=O)cc1OC (stereo unspecified)
TGI (SK-MEL-28 melanoma): > 100 µM
TGI (U251 CNS): > 100 µM
TGI (RPMI-8226 leukemia): > 100 µM
TGI (NCI-H23 lung): > 100 µM
TGI (UACC-62 melanoma): > 100 µM

Cc1ccccc1NC(=O)C(=O)CC(=O)c1sc(-n2nc(-c3ccccc3)cc2-c2ccccc2)nc1C
TGI (COLO 205 colon): > 100 µM
TGI (U251 CNS): > 100 µM
TGI (OVCAR-8 ovarian): > 100 µM
TGI (RPMI-8226 leukemia): > 100 µM
TGI (NCI-H23 lung): > 100 µM
TGI (UACC-62 melanoma): > 100 µM
TGI (NCI-H460 lung): > 100 µM

CCOC(=O)C(=O)Nc1nc2ccc(OC)cc2s1
TGI (COLO 205 colon): > 100 µM
TGI (SK-MEL-28 melanoma): > 100 µM
TGI (U251 CNS): > 100 µM
TGI (OVCAR-8 ovarian): > 100 µM
TGI (RPMI-8226 leukemia): > 100 µM
TGI (NCI-H23 lung): > 100 µM
TGI (UACC-62 melanoma): > 100 µM
TGI (NCI-H460 lung): > 100 µM

CNC(=O)N(CCCCC(NC(C)=O)C(=O)NCc1ccccc1)Cc1ccccc1 (stereo unspecified)
TGI (COLO 205 colon): > 100 µM
TGI (SK-MEL-28 melanoma): > 100 µM
TGI (U251 CNS): > 100 µM
TGI (OVCAR-8 ovarian): > 100 µM
TGI (RPMI-8226 leukemia): > 100 µM
TGI (NCI-H23 lung): > 100 µM
TGI (UACC-62 melanoma): > 100 µM
TGI (NCI-H460 lung): > 100 µM

NC(=O)N1N=C2c3ccccc3OC[C@H]2[C@@H]1c1ccccc1
TGI (COLO 205 colon): 51.5 µM
TGI (SK-MEL-28 melanoma): > 100 µM
TGI (U251 CNS): 28.5 µM
TGI (OVCAR-8 ovarian): 27.2 µM
TGI (RPMI-8226 leukemia): > 89.3 µM
TGI (NCI-H23 lung): > 92.4 µM
TGI (UACC-62 melanoma): 19.9 µM
TGI (NCI-H460 lung): 60.2 µM

COc1cc2ccc(CC(=O)O)cc2cc1OC
TGI (COLO 205 colon): > 100 µM
TGI (SK-MEL-28 melanoma): > 100 µM
TGI (U251 CNS): > 100 µM
TGI (OVCAR-8 ovarian): > 100 µM
TGI (RPMI-8226 leukemia): > 100 µM
TGI (NCI-H23 lung): > 100 µM
TGI (UACC-62 melanoma): > 100 µM

O=C(O)c1cc2ccc(Cl)cc2c(O)c1C1=CCCCC1
TGI (COLO 205 colon): > 100 µM
TGI (SK-MEL-28 melanoma): > 100 µM
TGI (U251 CNS): > 100 µM
TGI (OVCAR-8 ovarian): > 100 µM
TGI (RPMI-8226 leukemia): > 100 µM
TGI (NCI-H23 lung): 95.9 µM
TGI (UACC-62 melanoma): 77.5 µM
TGI (NCI-H460 lung): > 100 µM

Cc1ncc([N+](=O)[O-])n1CCOc1ccc(C(=O)/C=C/c2ccc(C(F)(F)F)cc2)cc1
GI50 (COLO 205 colon): 2110 nM
TGI (COLO 205 colon): 4.67 µM
GI50 (SK-MEL-28 melanoma): 10.2 µM
TGI (SK-MEL-28 melanoma): 21.9 µM
GI50 (NCI/ADR-RES ovarian): 2760 nM
TGI (NCI/ADR-RES ovarian): 9.29 µM
GI50 (U251 CNS): 1510 nM
TGI (U251 CNS): 3.08 µM
GI50 (HS 578T breast): 5.2 µM
TGI (HS 578T breast): 33.3 µM
GI50 (OVCAR-8 ovarian): 2090 nM
TGI (OVCAR-8 ovarian): 5.57 µM
GI50 (RPMI-8226 leukemia): 1910 nM
TGI (RPMI-8226 leukemia): 4.37 µM
GI50 (UACC-62 melanoma): 4.73 µM
TGI (UACC-62 melanoma): 17.6 µM
GI50 (NCI-H460 lung): 4.09 µM
TGI (NCI-H460 lung): 15 µM
